{"source": "patent US6331555A", "about": "“Treatment of platelet derived growth factor related disorders such as cancers” (priority 1999, dated 2001)", "key": {"[1]": {"system": "PDGF-R", "assay": "PDGF-R autophosphorylation, T98G glioblastoma cells", "format": "cell-based, human", "settings": "200, 500, 1000 mM; 20 ng/ml PDGF-BB", "description": "Proteins were then separated by SDS-polyacrylamide gel electrophoresis (PAGE). Proteins containing phosphorylated tyrosine were identified by western blotting with an anti-phosphotyrosine antibody. The level of phosphorylated tyrosine was determined by quantitating the amount of bound anti-phosphotyrosine. Quantitation was carried out by peak area integration using a Molecular Dynamics Computing Densitometer (Model 300S), and Image Quant v3.0 software (Molecule Dynamics). Data were expressed as relative peak.intensity (phosphorylation of a receptor divided by the total amount of phosphorylated tyrosine).\nT98G cells were plated in MCDB105 medium containing 2% FBS and incubated for 24 hours at 37° C. […] The cells were then treated with ligand for 10 minutes (20 ng/ml PDGF-BB or 50 ng/ml EGF). The cells were lysed and the level of phosphorylated receptor was quantitated as described in Example 1."}, "[2]": {"system": "C6 cells", "assay": "PDGF-stimulated DNA synthesis, C6 cells (3H-thymidine)", "format": "cell-based, rat", "settings": "50 ng/ml PDGF-BB"}, "[3]": {"system": "NIH3T3 cells overexpressing the human PDGF-b receptor", "assay": "PDGF-stimulated cell cycle progression, flow cytometry", "format": "cell-based, mouse", "description": "NIH3T3 mouse fibroblasts overexpressing the human PDGF-β receptor were seeded in DMEM supplemented with 10% CS and 2 mM GLN. Cells were grown to about 80% confluence and then treated overnight in serum-free medium (DMEM, 2 mM GLN, 2 mM NEAA, 2 mM NaPyr, and 2 mM HEPES). […] Cells were then collected, strained and analyzed by flow cytometry for DNA content.\nThe percentage of cells in the S phase of the cell cycle was determined by flow cytometry.\nThe cells were analyzed for DNA content by flow cytometry."}, "[4]": {"system": "NIH3T3 cells overexpressing the human EGF receptor", "assay": "EGF-stimulated mitosis, flow cytometry", "format": "cell-based, mouse", "settings": "100 mM A10"}, "[5]": {"system": "C6 cells", "assay": "Soft agar assay (SAA)", "format": "cell-based", "settings": "Rattus norvegicus, PDGF-R expression ++", "description": "(§1) After a 2 to 3 week incubation at 37° C., colonies larger than 50 μm were quantified using an Omnicon 3800 Tumor Colony counter.\n(§2) PDGF-R expression was measured qualitatively using a western blot."}, "[6]": {"system": "SF767T cells", "assay": "Soft agar assay (SAA)", "format": "cell-based", "settings": "Homo sapiens; PDGF-R expression ++", "description": "as §1, §2"}, "[7]": {"system": "SKOV-3 cells", "assay": "Soft agar assay (SAA)", "format": "cell-based", "settings": "Homo sapiens, SK-OV-3; PDGF-R expression -", "description": "as §1, §2"}, "[8]": {"system": "SKOV-3T cells", "assay": "Soft agar assay (SAA)", "format": "cell-based", "settings": "Homo sapiens; PDGF-R expression ++", "description": "as §1, §2"}, "[9]": {"system": "9L glioma", "assay": "SC xenograft in mice", "format": "in vivo, rat", "settings": "nu/nu, 20 mg/kg/day, day 20", "description": "(§3) Cell lines were grown in appropriate medium (see Appendix 1). Cells were harvested at or near confluency with 0.05% Trypsin-EDTA and pelleted at 450×g for 10 min. Pellets were resuspended in sterile PBS or media (without FBS) to a particular concentration and the cells were implanted into the hindflank of mice. Tumor growth was measured over 3 to 6 weeks using venier calipers. Tumor volumes were calculated as a product of length×width×height unless otherwise indicated. P values were calculated using the Students' t-test."}, "[10]": {"system": "A431 epidermoid tumor", "assay": "SC xenograft in mice", "format": "in vivo, human", "description": "as §3\n(§4) C6 and SKOV-3(T) cells were grown in culture, as described in \"cell growth\" above, and implanted into the hind flank of a female Balb/c nu/nu mouse at 3×10^6 cells (for C6 experiments), or 1×10^7 cells (for SKOV-3 experiments) in […] of PBS on Day 0. U87MG, U118MG or U373MG human glioblastoma cells (obtained from the ATCC), or A4312 were also implanted into athymic mice. […] Tumors were measured using venier calipers and tumor volume was calculated as a product of tumor length, width, and height."}, "[11]": {"system": "SKOV3T ovarian tumor", "assay": "SC xenograft in mice", "format": "in vivo, human", "description": "as §3, §4"}, "[12]": {"system": "U118 glioblastoma", "assay": "SC xenograft in mice", "format": "in vivo, human", "settings": "15 mg/kg", "description": "as §3, §4"}, "[13]": {"system": "U373MG glioblastoma", "assay": "SC xenograft in mice", "format": "in vivo, human", "description": "as §3, §4"}, "[14]": {"system": "U87MG glioblastoma", "assay": "SC xenograft in mice", "format": "in vivo, human", "description": "as §3, §4"}, "[15]": {"system": "C6 cells", "assay": "CTL generation in tumor-bearing rats (MLTC)", "format": "in vivo, rat", "settings": "8.4 mg/kg/day", "description": "Wistar rats received SC implants of C6 cells on day 0. […] The control group was not treated after tumor implantation. On day 21, the animals were sacrificed and the spleens were removed for in vitro analyses. Splenocytes were stimulated with ConA, LPS, and alloantigen (DA rat spleen cells) as in the murine studies.\nThe spleen cells from Wistar rats were also assayed for the generation of C6-specific CTL in the MLTC and the results summarized in Table XXI. Spleen cells from tumor-bearing, untreated animals mounted a vigorous CTL response (35% specific lysis at E:T=100:1), while cells from non-tumor bearing control rats mounted a weak response (13% specific lysis at E:T=100:1). Similar to the studies in BALB/c mice, it appeared that the vehicle inhibited the generation of CTL in a 7-day culture."}, "[16]": {"settings": "in vivo", "text": "Many cancer therapeutics are cytotoxic in nature and have profound effects on blood cells resulting in cytopenia."}, "[17]": {"system": "tumor xenografts", "assay": "Xenografts of various tumor types in mice", "format": "in vivo", "description": "as §3"}, "[18]": {"settings": "mice xenotransplanted with human ovarian cancer cells"}}, "note": "“Also recorded” adds a separate entry of the source."}
{"smiles": "Cc1oncc1C(=O)Nc1ccc(C(F)(F)F)cc1", "note": "[Compound A10, 5-methylisoxazole-4 carboxylic acid-(4-trifluromethyl)-anilide]", "values": [{"measurement": "autophosphorylation of PDGF-R by PDGF", "setting": "[1]", "result": "inhibited autophosphorylation of PDGF-R by PDGF"}, {"measurement": "PDGF-stimulated DNA synthesis", "setting": "[2]", "result": "decreased PDGF-stimulated DNA synthesis in both types of cells"}, {"measurement": "number of cells progressing to the S phase in response to PDGF", "setting": "[3]", "result": "dose-dependent decrease in the number of cells progressing to the S phase"}, {"measurement": "EGF-stimulated mitosis", "setting": "[4]", "result": "not able to inhibit EGF-stimulated mitosis"}, {"measurement": "IC50", "setting": "[5]", "result": 0.4, "unit": "µM"}, {"measurement": "IC50", "setting": "[6]", "result": "0.5 to 2", "unit": "µM"}, {"measurement": "IC50", "setting": "[7]", "result": 6.3, "unit": "µM"}, {"measurement": "IC50", "setting": "[8]", "result": 0.3, "unit": "µM"}, {"measurement": "% Inhibition", "setting": "[9]", "result": 83, "unit": "%"}, {"measurement": "effect on A431 tumor growth", "setting": "[10]; 15 mg/kg/day, DMSO", "result": "no more than 25%"}, {"measurement": "growth of xenograft", "setting": "[10]; 12 to 20 mg/kg/day", "result": "did not significantly inhibit the growth of xenotransplanted cells expressing EGF receptor; also recorded: failed to significantly inhibit the growth"}, {"measurement": "% Inhibition", "setting": "[10]; nu/nu, 15 mg/kg/day, day 15", "result": 40, "unit": "%"}, {"measurement": "inhibition in tumor growth", "setting": "[11]; 15 mg/kg/day (DMSO), after 20 days", "result": "greater than 90%"}, {"measurement": "cytotoxicity or mortality", "setting": "[11]; [18]", "result": "without significant cytotoxicity or mortality"}, {"measurement": "ovarian tumor growth", "setting": "[11]; [18]", "result": "nearly complete inhibition of ovarian tumor growth"}, {"measurement": "% Inhibition", "setting": "[11]; nu/nu, 15 mg/kg/day, day 21", "result": 94, "unit": "%"}, {"measurement": "In Vivo inhibition", "setting": "[11]; xenografted athymic mice", "result": 95, "unit": "%"}, {"measurement": "% Inhibition", "setting": "[12]", "result": 57, "unit": "%"}, {"measurement": "% Inhibition", "setting": "[13]; 15 mg/kg", "result": 54, "unit": "%"}, {"measurement": "% Inhibition", "setting": "[13]; nu/nu, 15 mg/kg/day, day 37", "result": 54, "unit": "%"}, {"measurement": "% Inhibition", "setting": "[14]; 5 mg/kg", "result": 52, "unit": "%"}, {"measurement": "% Inhibition", "setting": "[14]; 10 mg/kg", "result": 58, "unit": "%"}, {"measurement": "% Inhibition", "setting": "[14]; 15 mg/kg", "result": 66, "unit": "%"}, {"measurement": "% Inhibition", "setting": "[14]; 20 mg/kg", "result": 92, "unit": "%"}, {"measurement": "CTL generation", "setting": "[15]", "result": "did not overcome the inhibitory effect of the vehicle in immunocompetent rats"}, {"measurement": "CTL activity", "setting": "[15]; Tumor stimulus", "result": 0}, {"measurement": "effects on blood cell", "setting": "[16]", "result": "No effects on blood cell were observed"}, {"measurement": "growth of xenografts", "setting": "[17]; 12 to 20 mg/kg/day, glioma, SKOV3T, PA-1, A375, PC-3, Calu-6, D1B, L1210", "result": "effectively inhibited the growth"}, {"measurement": "inhibition of glioma growth", "setting": "[17]; xenografted gliomas in mice, some animals, relative to untreated controls", "result": "greater than 95%"}]}
